Patent US10174035B2, “6-morpholinyl-2-pyrazolyl-9H-purine derivatives and their use as PI3K inhibitors” (Daiichi Sankyo Company, Limited, priority 2015, dated 2019)
Like-named read-outs stand apart in the source and are kept apart here.

How the values were obtained:
[1] = tested on: IFN-γ release in mouse splenocytes; test: Phytohaemagglutinin (PHA)-induced interferon (IFN)-gamma release in mouse splenocytes; design: species or system C57BL/6 mouse; details: Splenocyte, PHA (10 μg/ml) for 48 hours, IFN-γ by ELISA, read-out: Cell Based IC50
Description: Effect of compounds on mitogen-induced IFN-γ release in mouse splenocytes was used to evaluate their potency in cell-based assay system [Blood (2010) 115: 2203-2213; Current Protocols in Immunology (2004) 3.12.1-3.12.20].
Mouse splenocytes were obtained from the spleen of a C57BL/6 mouse and plated at a density of 0.25 million cells/well in a 96 well tissue culture plate. The effect of the compounds to inhibit IFN-γ release was evaluated by treating the splenocytes with various concentrations of the test compounds followed by stimulation with PHA (10 μg/ml) for 48 hours. The IFN-γ release in the cell culture supernatant was quantified by ELISA as per the manufacturer's protocol (BD Biosciences, #555138).

[2] = molecular target: recombinant PI3K δ enzyme (Homo sapiens (Human), UniProt O00329); test: In vitro enzyme assay (Kinase-Glo luminescent kinase assay), PI3Kδ; type: biochemical
Summary of the method: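 Each recombinant human PI3K isoform at 2.29 μg/mL with 60 μM PIP2 and 10 μM ATP in HEPES pH 7.4, NaCl, CHAPS, MgCl2, DTT, 2 hours at room temperature. Remaining ATP read by Kinase-Glo luminescence relative to no-enzyme blanks.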

PI3Kβ = PI3Kβ (Homo sapiens (Human), UniProt P42338); test: In vitro enzyme assay (Kinase-Glo), selectivity, PI3Kβ; type: biochemical; details: enzyme 2.29 μg/mL; ATP 10 μM; PIP2 60 μM; 2 hours
Description: (§1) The Kinase-Glo luminescent kinase assay kit (from Promega) was used to measure kinase activity. In this assay, amount of ATP remaining in solution following a kinase reaction is measured. The effect of compounds on PI3Kδ inhibition was carried out by adding 2.29 μg/ml of recombinant PI3K δ enzyme (Proteros, Germany) to reaction mixture containing assay buffer (50 mM HEPES, pH 7.4, 50 mM NaCl, 0.05% CHAPS) supplemented with 10 mM MgCl2, 5 mM DTT, 60 μM Phosphatidyl inositol bisphosphate (PIP2) and 10 μM ATP in the absence or presence of different concentrations of the compounds in a final volume of 15 μl/well, in a 384 well plate. The reaction mixture was incubated for 2 hours at room temperature. At the end of incubation period the equal volume of Kinase-Glo plus (Promega, V3772), was added per well and the luminescence was measured after incubating for 10 minutes at room temperature in dark. Results were calculated by measuring the luminescence units of test samples to blanks containing no enzyme.
(§2) The compounds of the present invention were tested for their selectivity for PI3Kδ over PI3Kα, PI3Kβ and PI3Kγ following the above assay using specific recombinant enzymes (Proteros, Germany) for each kinase. Assay condition of kinase assay (PI3Kα, PI3Kβ, PI3Kγ and PI3Kδ) was as follows. Enzyme: 2.29 μg/mL; ATP: 10 μM; PIP2 substrate: 60 μM and Reaction Time: 2 hours.

PI3Kα = PI3Kα (Homo sapiens (Human), UniProt P42336); test: In vitro enzyme assay (Kinase-Glo), selectivity, PI3Kα; type: biochemical; details: enzyme 2.29 μg/mL; ATP 10 μM; PIP2 60 μM; 2 hours
Description: as §1, §2

PI3Kγ = PI3Kγ (Homo sapiens (Human), UniProt P48736); test: In vitro enzyme assay (Kinase-Glo), selectivity, PI3Kγ; type: biochemical; details: enzyme 2.29 μg/mL; ATP 10 μM; PIP2 60 μM; 2 hours
Description: The Kinase-Glo luminescent kinase assay kit (from Promega) was used to measure kinase activity. In this assay, amount of ATP remaining in solution following a kinase reaction is measured. […] The reaction mixture was incubated for 2 hours at room temperature. At the end of incubation period the equal volume of Kinase-Glo plus (Promega, V3772), was added per well and the luminescence was measured after incubating for 10 minutes at room temperature in dark. Results were calculated by measuring the luminescence units of test samples to blanks containing no enzyme.
The compounds of the present invention were tested for their selectivity for PI3Kδ over PI3Kα, PI3Kβ and PI3Kγ following the above assay using specific recombinant enzymes (Proteros, Germany) for each kinase. Assay condition of kinase assay (PI3Kα, PI3Kβ, PI3Kγ and PI3Kδ) was as follows.

[3] = enzyme 2.29 μg/mL, ATP 10 μM, PIP2 60 μM, 2 hours

PI3Kγ, sequence (P48736 whole entry, species assumed): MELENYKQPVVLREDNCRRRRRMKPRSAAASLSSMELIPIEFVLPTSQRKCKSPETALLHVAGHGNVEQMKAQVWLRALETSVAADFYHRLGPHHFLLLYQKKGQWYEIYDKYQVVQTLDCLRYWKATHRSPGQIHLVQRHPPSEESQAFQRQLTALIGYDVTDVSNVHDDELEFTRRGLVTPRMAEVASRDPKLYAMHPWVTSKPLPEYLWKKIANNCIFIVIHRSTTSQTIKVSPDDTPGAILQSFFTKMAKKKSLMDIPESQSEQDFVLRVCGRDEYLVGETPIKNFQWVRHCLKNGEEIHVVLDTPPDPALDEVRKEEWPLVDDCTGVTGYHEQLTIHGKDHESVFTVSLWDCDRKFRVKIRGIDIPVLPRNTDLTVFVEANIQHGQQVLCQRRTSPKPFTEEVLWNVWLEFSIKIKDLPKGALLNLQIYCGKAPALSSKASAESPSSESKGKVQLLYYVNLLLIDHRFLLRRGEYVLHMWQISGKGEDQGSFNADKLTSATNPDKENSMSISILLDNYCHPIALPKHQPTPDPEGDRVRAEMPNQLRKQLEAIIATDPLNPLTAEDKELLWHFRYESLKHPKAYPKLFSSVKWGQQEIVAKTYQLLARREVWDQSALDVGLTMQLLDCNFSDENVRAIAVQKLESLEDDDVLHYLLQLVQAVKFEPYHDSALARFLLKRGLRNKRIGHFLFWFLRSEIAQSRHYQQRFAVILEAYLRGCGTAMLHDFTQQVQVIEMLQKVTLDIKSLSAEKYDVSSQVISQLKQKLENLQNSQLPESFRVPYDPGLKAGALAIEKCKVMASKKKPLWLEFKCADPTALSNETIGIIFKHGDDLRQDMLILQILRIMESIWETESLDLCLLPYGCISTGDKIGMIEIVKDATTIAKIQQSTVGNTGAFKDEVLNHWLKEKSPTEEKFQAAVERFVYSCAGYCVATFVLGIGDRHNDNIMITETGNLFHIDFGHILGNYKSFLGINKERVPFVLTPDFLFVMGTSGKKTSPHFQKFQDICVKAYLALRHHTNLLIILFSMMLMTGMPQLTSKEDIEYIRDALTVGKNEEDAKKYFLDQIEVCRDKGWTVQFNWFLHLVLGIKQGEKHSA
PI3Kβ, sequence (P42338 whole entry, species assumed): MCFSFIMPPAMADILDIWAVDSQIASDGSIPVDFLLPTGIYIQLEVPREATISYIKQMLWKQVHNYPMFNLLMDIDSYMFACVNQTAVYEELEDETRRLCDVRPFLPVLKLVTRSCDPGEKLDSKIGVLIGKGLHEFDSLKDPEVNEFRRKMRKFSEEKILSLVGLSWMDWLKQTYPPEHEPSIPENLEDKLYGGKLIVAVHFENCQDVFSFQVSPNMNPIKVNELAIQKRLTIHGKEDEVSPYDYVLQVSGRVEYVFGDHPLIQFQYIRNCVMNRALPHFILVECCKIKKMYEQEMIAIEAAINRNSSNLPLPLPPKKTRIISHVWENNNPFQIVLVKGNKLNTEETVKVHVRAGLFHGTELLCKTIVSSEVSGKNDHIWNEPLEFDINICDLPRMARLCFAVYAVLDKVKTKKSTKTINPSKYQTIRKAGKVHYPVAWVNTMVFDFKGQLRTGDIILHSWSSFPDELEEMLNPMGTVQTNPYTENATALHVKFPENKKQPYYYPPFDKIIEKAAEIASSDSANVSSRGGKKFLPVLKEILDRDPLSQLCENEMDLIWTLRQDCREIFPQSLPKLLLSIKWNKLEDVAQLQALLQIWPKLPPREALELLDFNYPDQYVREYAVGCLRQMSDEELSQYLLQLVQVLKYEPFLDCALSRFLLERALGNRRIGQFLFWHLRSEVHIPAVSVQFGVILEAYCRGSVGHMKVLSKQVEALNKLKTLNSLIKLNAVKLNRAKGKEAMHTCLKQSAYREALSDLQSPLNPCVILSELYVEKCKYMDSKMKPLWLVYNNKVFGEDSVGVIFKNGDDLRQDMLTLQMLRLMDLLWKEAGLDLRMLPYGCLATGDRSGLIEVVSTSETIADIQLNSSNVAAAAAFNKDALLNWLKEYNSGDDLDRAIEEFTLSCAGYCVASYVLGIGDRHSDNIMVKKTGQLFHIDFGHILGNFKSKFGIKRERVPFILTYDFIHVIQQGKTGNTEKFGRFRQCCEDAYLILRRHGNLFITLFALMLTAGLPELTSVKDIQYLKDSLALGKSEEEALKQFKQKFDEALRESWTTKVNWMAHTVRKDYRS
PI3Kβ, sequence (P27986 whole entry partner, species assumed): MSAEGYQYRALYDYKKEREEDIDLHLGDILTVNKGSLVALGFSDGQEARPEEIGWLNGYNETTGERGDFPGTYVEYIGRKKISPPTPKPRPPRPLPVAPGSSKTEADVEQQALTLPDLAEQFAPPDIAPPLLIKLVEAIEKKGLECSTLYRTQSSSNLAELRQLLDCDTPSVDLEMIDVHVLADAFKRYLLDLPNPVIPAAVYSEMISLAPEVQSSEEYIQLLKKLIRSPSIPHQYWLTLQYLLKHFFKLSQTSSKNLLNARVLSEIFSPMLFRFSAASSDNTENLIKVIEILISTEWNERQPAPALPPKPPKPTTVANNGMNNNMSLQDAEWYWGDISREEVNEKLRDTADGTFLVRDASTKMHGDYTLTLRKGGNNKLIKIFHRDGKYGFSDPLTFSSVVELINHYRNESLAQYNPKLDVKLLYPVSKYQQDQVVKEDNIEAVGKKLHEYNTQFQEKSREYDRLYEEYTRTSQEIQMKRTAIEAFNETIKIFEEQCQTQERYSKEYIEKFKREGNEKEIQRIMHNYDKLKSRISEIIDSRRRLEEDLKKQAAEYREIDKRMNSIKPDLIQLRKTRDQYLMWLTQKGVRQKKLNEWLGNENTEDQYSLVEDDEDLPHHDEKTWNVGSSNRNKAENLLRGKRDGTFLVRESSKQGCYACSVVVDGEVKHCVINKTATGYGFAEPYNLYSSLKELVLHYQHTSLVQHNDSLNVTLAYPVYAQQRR
recombinant PI3K δ enzyme, sequence (O00329 whole entry, species assumed, canonical isoform): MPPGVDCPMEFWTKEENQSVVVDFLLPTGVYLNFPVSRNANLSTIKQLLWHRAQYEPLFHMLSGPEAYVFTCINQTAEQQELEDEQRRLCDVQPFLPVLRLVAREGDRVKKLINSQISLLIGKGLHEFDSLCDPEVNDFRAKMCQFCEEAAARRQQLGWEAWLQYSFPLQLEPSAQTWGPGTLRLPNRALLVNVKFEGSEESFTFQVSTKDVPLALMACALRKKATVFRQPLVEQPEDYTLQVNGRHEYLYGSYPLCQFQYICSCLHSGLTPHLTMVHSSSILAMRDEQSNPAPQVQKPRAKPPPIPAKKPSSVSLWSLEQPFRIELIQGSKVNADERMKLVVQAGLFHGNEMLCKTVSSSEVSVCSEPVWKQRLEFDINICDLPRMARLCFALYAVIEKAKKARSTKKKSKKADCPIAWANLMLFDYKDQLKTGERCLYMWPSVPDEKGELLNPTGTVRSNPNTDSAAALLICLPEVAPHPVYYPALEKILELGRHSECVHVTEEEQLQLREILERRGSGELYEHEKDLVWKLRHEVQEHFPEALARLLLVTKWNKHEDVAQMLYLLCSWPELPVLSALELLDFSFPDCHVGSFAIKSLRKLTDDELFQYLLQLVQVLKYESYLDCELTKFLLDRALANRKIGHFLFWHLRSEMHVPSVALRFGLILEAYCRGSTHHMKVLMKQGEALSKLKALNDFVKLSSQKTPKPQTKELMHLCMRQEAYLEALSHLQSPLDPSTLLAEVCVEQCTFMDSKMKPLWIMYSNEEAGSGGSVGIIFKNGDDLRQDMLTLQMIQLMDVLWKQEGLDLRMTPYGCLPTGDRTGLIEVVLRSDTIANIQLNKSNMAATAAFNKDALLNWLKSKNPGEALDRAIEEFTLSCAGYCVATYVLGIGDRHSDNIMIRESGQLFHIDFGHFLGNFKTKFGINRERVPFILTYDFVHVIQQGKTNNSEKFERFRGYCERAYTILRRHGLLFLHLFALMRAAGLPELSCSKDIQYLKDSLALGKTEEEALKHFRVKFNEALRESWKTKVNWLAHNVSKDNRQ
recombinant PI3K δ enzyme, sequence (P27986 whole entry partner, species assumed, canonical isoform): as the sequence (P27986 whole entry partner, species assumed) above
PI3Kα, sequence (P42336 whole entry, species assumed): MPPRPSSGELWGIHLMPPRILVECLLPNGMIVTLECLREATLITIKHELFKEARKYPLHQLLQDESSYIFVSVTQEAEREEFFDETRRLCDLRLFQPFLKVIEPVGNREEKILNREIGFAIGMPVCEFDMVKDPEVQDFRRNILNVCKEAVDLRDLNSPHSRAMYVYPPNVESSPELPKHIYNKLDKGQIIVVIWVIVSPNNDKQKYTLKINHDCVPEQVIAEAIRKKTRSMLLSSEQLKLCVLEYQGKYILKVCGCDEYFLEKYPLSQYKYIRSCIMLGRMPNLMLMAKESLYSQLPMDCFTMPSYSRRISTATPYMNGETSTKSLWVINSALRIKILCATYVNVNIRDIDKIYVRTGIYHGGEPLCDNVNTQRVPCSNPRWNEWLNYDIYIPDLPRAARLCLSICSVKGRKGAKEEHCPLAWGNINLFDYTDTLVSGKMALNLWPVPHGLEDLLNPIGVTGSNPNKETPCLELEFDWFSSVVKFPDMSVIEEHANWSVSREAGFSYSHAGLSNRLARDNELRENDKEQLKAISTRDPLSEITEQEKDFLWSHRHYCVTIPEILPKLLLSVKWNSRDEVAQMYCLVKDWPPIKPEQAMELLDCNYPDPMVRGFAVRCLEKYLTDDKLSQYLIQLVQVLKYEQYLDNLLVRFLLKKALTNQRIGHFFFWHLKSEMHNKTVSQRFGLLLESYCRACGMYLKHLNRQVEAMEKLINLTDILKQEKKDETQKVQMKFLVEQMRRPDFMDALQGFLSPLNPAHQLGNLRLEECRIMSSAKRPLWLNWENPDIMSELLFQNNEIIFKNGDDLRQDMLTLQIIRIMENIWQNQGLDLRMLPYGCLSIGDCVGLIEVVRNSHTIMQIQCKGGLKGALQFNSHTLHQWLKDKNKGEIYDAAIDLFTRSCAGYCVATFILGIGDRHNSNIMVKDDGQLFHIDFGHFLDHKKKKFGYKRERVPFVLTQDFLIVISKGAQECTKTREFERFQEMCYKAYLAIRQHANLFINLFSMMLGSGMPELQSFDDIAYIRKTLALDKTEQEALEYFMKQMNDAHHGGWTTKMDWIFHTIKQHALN
PI3Kα, sequence (P27986 whole entry partner, species assumed): as the sequence (P27986 whole entry partner, species assumed) above

IC50 [1] [nM]	IC50 [2] [nM]	IC50 [2, 3] [nM]	IC50 (PI3Kβ) [nM]	IC50 (PI3Kα) [nM]	IC50 (PI3Kγ) [nM]	SMILES
43	6	6	> 10000	> 10000	> 10000	Cn1cc(-c2nc3[nH]c(C(=O)N4CCC(N5CCOCC5)CC4)nc3c(N3CCOCC3)c2F)cn1 [compound 98, [6-Fluoro-5-(1-methyl-1H-pyrazol-4-yl)-7-(morpholin-4-yl)-3H-imidazo[4,5-b]pyridin-2-yl][4-(morpholin-4-yl)piperidin-1-yl]methanone]
13	20	20	> 10000	> 1000	> 1000	Cn1cc(-c2nc3[nH]c(C(=O)N4CCC5(CC4)COC5)nc3c(N3CCOCC3)c2F)cn1 [compound 79, [6-Fluoro-5-(1-methyl-1H-pyrazol-4-yl)-7-(morpholin-4-yl)-3H-imidazo[4,5-b]pyridin-2-yl](2-oxa-7-azaspiro[3.5]non-7-yl)methanone]
346	11	11	> 10000	> 1000	> 1000	Cn1cc(-c2nc3[nH]c(C(=O)N4CCN(C(C)(C)C(N)=O)CC4)nc3c(N3CCOCC3)c2F)cn1 [compound 82, 2-(4-{[6-Fluoro-5-(1-methyl-1H-pyrazol-4-yl)-7-(morpholin-4-yl)-3H-imidazo[4,5-b]pyridin-2-yl]carbonyl}piperazin-1-yl)-2-methylpropanamide]
422	10	10	> 1000	6480	6540	Cc1nn(C)cc1-c1nc(N2CCOCC2)c2nc(C(=O)N3CCN(C(C)(C)C(N)=O)CC3)[nH]c2n1 [compound 8, 2-(4-{[2-(1,3-Dimethyl-1H-pyrazol-4-yl)-6-(morpholin-4-yl)-9H-purin-8-yl]carbonyl}piperazin-1-yl)-2-methylpropanamide]
84	18	–	> 10000	> 1000	> 1000	C[C@@H]1CN(CCCNC(=O)c2nc3c(N4CCOCC4)nc(-c4cnn(C)c4)nc3[nH]2)C[C@H](C)O1 [compound 75, N-{3-[cis-2,6-dimethylmorpholin-4-yl]propyl}-2-(1-methyl-1H-pyrazol-4-yl)-6-(morpholin-4-yl)-9H-purine-8-carboxamide]
79	–	–	> 10000	986	9770	C[C@@H]1CN(C2CCN(C(=O)c3nc4c(N5CCOCC5)nc(-c5cn[nH]c5)nc4[nH]3)CC2)C[C@H](C)O1 [compound 65, {4-[cis-2,6-Dimethylmorpholin-4-yl]piperidin-1-yl}[6-(morpholin-4-yl)-2-(1H-pyrazol-4-yl)-9H-purin-8-yl]methanone]
7	–	–	1150	> 1000	> 1000	Cc1nn(C)cc1-c1cc(N2CCOCC2)c2nc(C(=O)N3CCC(N4C[C@@H](C)O[C@@H](C)C4)CC3)[nH]c2n1 [compound 113, {4-[cis-2,6-Dimethylmorpholin-4-yl]piperidin-1-yl}[5-(1,3-dimethyl-1H-pyrazol-4-yl)-7-(morpholin-4-yl)-3H-imidazo[4,5-b]pyridin-2-yl]methanone]
72	–	–	–	–	–	Cn1cc(-c2cc(N3CCOCC3)c3nc(C(=O)NCCCN4CCCC4=O)[nH]c3n2)cn1 [compound 116, 5-(1-Methyl-1H-pyrazol-4-yl)-7-(morpholin-4-yl)-N-[3-(2-oxopyrrolidin-1-yl)propyl]-3H-imidazo[4,5-b]pyridine-2-carboxamide]
270	–	–	–	–	–	Cn1cc(-c2nc(N3CCOCC3)c3nc(C(=O)N4CCN(C(C)(C)C(N)=O)CC4)[nH]c3n2)cn1 [compound 10, 2-Methyl-2-(4-{[2-(1-methyl-1H-pyrazol-4-yl)-6-(morpholin-4-yl)-9H-purin-8-yl]carbonyl}piperazin-1-yl)propanamide]
–	101	–	–	–	–	CC(=O)NC1CCN(C(=O)c2nc3c(N4CCOCC4)nc(-c4cnn(C)c4)nc3[nH]2)CC1 [compound 26, N-(1-{[2-(1-methyl-1H-pyrazol-4-yl)-6-(morpholin-4-yl)-9H-purin-8-yl]carbonyl}piperidin-4-yl)acetamide]
–	36	–	–	–	–	Cn1cc(-c2nc(N3CCOCC3)c3nc(C(=O)N4CCN5C(=O)COC[C@H]5C4)[nH]c3n2)cn1 [compound 6, (9aR)-8-{[2-(1-Methyl-1H-pyrazol-4-yl)-6-(morpholin-4-yl)-9H-purin-8-yl]carbonyl}hexahydropyrazino[2,1-c][1,4]oxazin-4(3H)-one]
–	61	–	–	–	–	Cn1cc(-c2nc(N3CCOCC3)c3nc(C(=O)N4CC[C@H](O)C4)[nH]c3n2)cn1 [compound 62, [(3S)-3-Hydroxypyrrolidin-1-yl][2-(1-methyl-1H-pyrazol-4-yl)-6-(morpholin-4-yl)-9H-purin-8-yl]methanone]
–	32	–	–	–	–	Cn1cc(-c2nc3[nH]c(C(=O)NCCN4CCOCC4)nc3c(N3CCOCC3)c2F)cn1 [compound 105, 6-Fluoro-5-(1-methyl-1H-pyrazol-4-yl)-7-(morpholin-4-yl)-N-[2-(morpholin-4-yl)ethyl]-3H-imidazo[4,5-b]pyridine-2-carboxamide]
–	3	–	–	–	–	O=C(c1nc2c(N3CCOCC3)cc(-c3c[nH]nc3C(F)(F)F)nc2[nH]1)N1CCC(N2CCOCC2)CC1 [compound 134, [4-(Morpholin-4-yl)piperidin-1-yl]{7-(morpholin-4-yl)-5-[3-(trifluoromethyl)-1H-pyrazol-4-yl]-3H-imidazo[4,5-b]pyridin-2-yl}methanone]
–	122	–	–	–	–	Cn1cc(-c2cc(N3CCOCC3)c3nc(C(=O)N4CCC(C(C)(C)O)CC4)[nH]c3n2)cn1 [compound 117, [4-(2-Hydroxypropan-2-yl)piperidin-1-yl][5-(1-methyl-1H-pyrazol-4-yl)-7-(morpholin-4-yl)-3H-imidazo[4,5-b]pyridin-2-yl]methanone]
–	41	–	–	–	–	CN(C)C1CCN(C(=O)c2nc3c(N4CCOCC4)cc(-c4cnn(C)c4)nc3[nH]2)CC1 [compound 101, [4-(Dimethylamino)piperidin-1-yl][5-(1-methyl-1H-pyrazol-4-yl)-7-(morpholin-4-yl)-3H-imidazo[4,5-b]pyridin-2-yl]methanone]
–	140	–	–	–	–	Cn1cc(-c2nc(N3CCOCC3)c3nc(C(=O)N4CCN(C(=O)Cc5cnccn5)CC4)[nH]c3n2)cn1 [compound 29, 1-(4-{[2-(1-Methyl-1H-pyrazol-4-yl)-6-(morpholin-4-yl)-9H-purin-8-yl]carbonyl}piperazin-1-yl)-2-(pyrazin-2-yl)ethanone]
–	21	–	–	–	–	Cc1n[nH]cc1-c1nc(N2CCOCC2)c2nc(C(=O)N3CCC(N4CCOCC4)CC3)[nH]c2n1 [compound 66, [2-(3-Methyl-1H-pyrazol-4-yl)-6-(morpholin-4-yl)-9H-purin-8-yl][4-(morpholin-4-yl)piperidin-1-yl]methanone]
–	48	–	–	–	–	CCOC(=O)CN1CCN(C(=O)c2nc3c(N4CCOCC4)nc(-c4cnn(C)c4)nc3[nH]2)CC1 [compound 45, Ethyl (4-{[2-(1-methyl-1H-pyrazol-4-yl)-6-(morpholin-4-yl)-9H-purin-8-yl]carbonyl}piperazin-1-yl)acetate]
–	68	–	–	–	–	CN(C)C1CCN(C(=O)c2nc3c(N4CCOCC4)nc(-c4cnn(C)c4)nc3[nH]2)CC1 [compound 57, [4-(Dimethylamino)piperidin-1-yl][2-(1-methyl-1H-pyrazol-4-yl)-6-(morpholin-4-yl)-9H-purin-8-yl]methanone]
–	101	–	–	–	–	Cn1cc(-c2nc(N3CCOCC3)c3nc(C(=O)NCC(C)(C)CO)[nH]c3n2)cn1 [compound 76, N-(3-hydroxy-2,2-dimethylpropyl)-2-(1-methyl-1H-pyrazol-4-yl)-6-(morpholin-4-yl)-9H-purine-8-carboxamide]
